Columns and labels:
PI3Kα = target: T1, PI3Kα (Homo sapiens, UniProt P42336); assay: In vitro PI3K AlphaScreen assay, PI3Kα; format: biochemical; conditions: PI(4,5)P2 substrate, 20 minutes at room temperature, read-out: P13Kalpha IC50 um
T1 construct: Full length p110 subunits of PI3K α, β and δ, N-terminally labeled with polyHis tag; polyHis (N); made in house; host or cells: Sf9 insect cells (baculovirus)
Protocol: The PI3K AlphaScreen® assay (PerkinElmer, Waltham, Mass.) measures the activity of a panel of four phosphoinositide 3-kinases: PI3Kα, PI3KIβ, PI3Kγ, and PI3Kδ. Each of these enzymes phosphorylates the 3′-hydroxyl group on phosphatidylinositiol (4,5)-bisphosphate (PIP2) to produce phosphatidylinositol (3,4,5)-trisphosphate (PIP3). This phosphorylation activity is measured using a GST-tagged PIP3 binding protein (Echelon Biosciences, Salt Lake City, Utah), an anti-GST-tagged Acceptor bead, and streptavidin-Donor bead. The interaction of biotinylated-PIP3 analog (IP4) and the PIP3 binding protein brings both Acceptor and Donor beads together producing, upon excitation of the Donor beads at 680 nm, a singlet oxygen species leading to the luminescent AlphaScreen® signal. When PIP3 is produced via phosphorylation of PIP2 by a PI3K, PIP3 competes with biotinylated-PIP3 analog (IP4) for binding to the PIP3 binding protein. In the absence of this interaction, proximity of the Donor and Acceptor beads is decreased, producing a loss of luminescent signal which is […] to PI3K activity. […] The enzyme reaction buffer is made using sterile water (Baxter, Deerfield, Ill.) and 50 mM Tris HCl pH 7, 14 mM MgCl2, 2 mM sodium cholate, and 100 mM NaCl. 2 mM DTT is added fresh the day of the experiment. The AlphaScreen® reaction buffer is made using sterile water and 10 mM Tris HCl pH 7.5, 150 mM NaCl, 0.10% Tween 20, and 30 mM EDTA. 1 mM DTT is added fresh the day of the experiment. The source plates for this assay are 384-well Greiner clear polypropylene plates containing test compounds at 5 mM and diluted 1:2 over 22 points. Columns 23 and 24 contain only DMSO as these are designated for positive and negative controls. Source plates are replicated into 384-well Optiplates (PerkinElmer, Waltham, Mass.), 0.5 μL/well, to make assay-ready plates. The different PI3K isoforms are each diluted in enzyme reaction buffer to 2× working solutions. PI3Kα is diluted to 1.6 nM, PI3Kβ is diluted to 0.8 nM, PI3Kγ is diluted to 15 nM, and PI3Kδ is diluted to 1.6 nM. Two different 2× substrate solutions are made in enzyme reaction buffer. In one solution, PI(4,5)P2 (Echelon Biosciences, Salt Lake City, Utah) is diluted to 10 μM and ATP is diluted to 20 μM. This solution is used in the assays testing PI3Kα and PI3Kβ. In a second solution, PI(4,5)P2 is diluted to 10 μM and ATP is diluted to 80 μM. This solution is used in the assays testing PI3Kγ and PI3Kδ. The AlphaScreen® reaction solutions are made using beads from the anti-GST AlphaScreen® kit (PerkinElmer, Waltham, Mass.). Two solutions are made in Alphascreen reaction buffer to 4× working concentrations. In one solution, biotinylated-IP4 (Echelon Biosciences, Salt Lake City, Utah) is diluted to 40 nM and streptavadin-Donor Beads are diluted to 80 μg/mL. In the second solution, PIP3-binding protein (Echelon Biosciences, Salt Lake City, Utah) is diluted to 40 nM and anti-GST-Acceptor Beads are diluted to 80 μg/mL. 10 μL/well of enzyme reaction buffer is added to Column 24 of the assay ready plates in place of enzyme. This is done for plates in the PI3Kα, β, and δ assays. Using a 384-well dispensing Multidrop (Titertek, Huntsville, Ala.), 10 μL/well of 2× enzyme (PI3Kα, β, δ) is added to Columns 1-23 of the appropriate assay ready plates (for PI3Kγ 10 μL is added to Columns 1-24). 10 μL/well of the appropriate substrate solution (the solution with 20 μM ATP for PI3Kα and β assays, and the solution with […] for PI3Kγ and δ assays) is then added to Columns 1-24 of the plates. Plates are then incubated at room temperature for 20 minutes. In the dark, 10 μL/well of the Donor Bead solution is added to Columns 1-24 of the plates to quench the enzyme reaction. The plates are incubated at room temperature for 30 minutes. Still in the dark, 10 μL/well of the Acceptor Bead solution is also added to Columns 1-24 of the plates. The plates are then incubated in the dark for 1.5 hours.

[1] = test system: phosphorylation of Akt at Serine 473 in U87 MG cells; assay: pAkt AlphaScreen (U87 cell); format: cell-based; conditions: Homo sapiens, U-87 MG, 2 h; pAkt at Serine 473, U87 MG cells, two hours with compound
Protocol: The pAkt AlphaScreen® assay (PerkinElmer, Waltham, Mass.) determines whether there is phosphorylation of Akt at Serine 473 by recruitment of a phosphospecific antibody. This assay was performed using U87 MG cells. The U87 growth media consists of MEM (Gibco, Carlsbad, Calif.) supplemented with 10% FBS (Gibco), 1× Non-Essential Amino Acids (Gibco,) and 1× Penicillin/Streptomycin/Glutamine (Gibco). The cells were maintained weekly using 0.05% Trypsin (Gibco) and replated in 150 mm TC— Treated Culture Dishes (Corning, Corning, N.Y.).
The first day of the assay, the adherent cells were trypsinized, media was added to the loose cells and cells were mixed to a homogenous mixture. 0.5 ml of the homogenous mixture was counted on the Beckman Coulter® Vi-Cell™ XR (Fullerton, Calif.). 50 frames of cells were counted and the number of viable cells was determined. The cells were then diluted to 0.25 million cells per ml, and centrifuged at 200 rcf for 5 minutes. The media was removed and the cells were reconstituted in fresh media for plating. The cells were plated at 20 μl per well on the PerkinElmer® FlexDrop PLUS in Low Volume 384 Well White Tissue Culture Plates (Corning) with a final cell density of 5K cells per well. The plates were incubated overnight at 37° Celsius, 5% CO2.
On the second day, the compound plates were prepared, the cells were treated with compound and the pAkt reaction mix was added to the cell lysate. 384 well compound plates were prepared containing 1 μl of compound per well starting at 5 mM and diluted 1:2 across the row, resulting in a 22 well serial dilution. 39 μl of growth media was added to the compound plate in rows 1-22 using the PerkinElmer® FlexDrop PLUS resulting in a DMSO concentration of 2.5%. The cell plates and diluted compound plates were put onto the VELOCITY11™ VPREP™ 384 ST where the compound plate was mixed and 5 μl of serially diluted compound or controls was added to the cell plate. The final concentration of the compounds was 25 μM serially diluted to 11.9 pM in 0.5% DMSO.
The cell plates were then incubated with compound for two hours at 37° C., 5% CO2. After two hours, the media in the cell plates was aspirated using the BioTek® ELx405HT plate washer (Winooski, Vt.) removing the majority of media and compound without disturbing the adherent U87 cells. The following assay reagents are components of the SureFire® Akt (Ser 473) Phosphorylation 50K Point Kit (TGR BioSciences, Adelaide, Austalia) and an IgG Detection Kit (PerkinElmer, Waltham, Mass.). 5 μl of 1× Lysis Buffer was added to each well using the PerkinElmer® FlexDrop PLUS. The plates were then incubated at room temperature on a shaker for ten minutes. The AlphaScreen® reaction was prepared under low light conditions (subdued or green light) including p-Aid (Ser 473) Reaction Buffer, Dilution Buffer, Activation Buffer, Acceptor Beads and Donor Beads at a ratio of 40:20:10:1:1 respectively. The AlphaScreen® reaction was added to the cell lysate at 6 μl per well using the PerkinElmer® FlexDrop PLUS. The plates were placed in a humid environment to reduce edge effects and incubated overnight at room temperature with restricted air flow in the dark.
On the final day of the experiment, the plates were read on the PerkinElmer® EnVision™ 2103 Multilable Reader using the standard AlphaScreen® readout. The POC is calculated and the data is analyzed to report the IC50 IP for pAkt at Serine 473.
Activity data for the compounds tested in the PI3K cell based Akt assay is provided in Table 1 under the column heading U87

T1 sequence (P42336 whole entry): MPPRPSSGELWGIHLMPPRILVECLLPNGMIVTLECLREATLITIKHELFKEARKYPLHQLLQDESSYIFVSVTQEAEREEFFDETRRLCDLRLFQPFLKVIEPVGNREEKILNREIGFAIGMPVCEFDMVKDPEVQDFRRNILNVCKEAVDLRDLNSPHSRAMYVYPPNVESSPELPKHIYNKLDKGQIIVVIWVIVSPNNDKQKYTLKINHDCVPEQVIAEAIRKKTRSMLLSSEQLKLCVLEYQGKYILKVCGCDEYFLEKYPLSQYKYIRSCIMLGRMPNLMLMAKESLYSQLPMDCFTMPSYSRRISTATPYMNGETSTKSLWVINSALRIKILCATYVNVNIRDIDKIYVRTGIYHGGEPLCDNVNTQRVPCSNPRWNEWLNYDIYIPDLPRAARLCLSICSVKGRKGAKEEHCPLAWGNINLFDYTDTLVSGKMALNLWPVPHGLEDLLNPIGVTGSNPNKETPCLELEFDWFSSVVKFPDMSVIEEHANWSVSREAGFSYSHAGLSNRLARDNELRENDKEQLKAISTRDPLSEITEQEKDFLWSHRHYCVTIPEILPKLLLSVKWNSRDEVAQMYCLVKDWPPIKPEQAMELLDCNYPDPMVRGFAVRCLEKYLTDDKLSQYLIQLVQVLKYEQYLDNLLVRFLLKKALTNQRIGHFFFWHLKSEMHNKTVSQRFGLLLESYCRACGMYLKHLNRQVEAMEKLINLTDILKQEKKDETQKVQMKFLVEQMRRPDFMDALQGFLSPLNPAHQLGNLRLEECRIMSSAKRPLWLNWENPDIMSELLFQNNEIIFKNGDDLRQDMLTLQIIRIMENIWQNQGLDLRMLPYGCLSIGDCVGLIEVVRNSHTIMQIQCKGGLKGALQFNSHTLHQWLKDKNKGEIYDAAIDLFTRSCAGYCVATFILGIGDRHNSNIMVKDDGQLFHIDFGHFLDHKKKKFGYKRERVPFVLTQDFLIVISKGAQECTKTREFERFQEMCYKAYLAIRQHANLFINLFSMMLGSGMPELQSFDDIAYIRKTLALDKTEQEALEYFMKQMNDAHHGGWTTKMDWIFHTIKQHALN
T1 sequence (P27986 whole entry partner): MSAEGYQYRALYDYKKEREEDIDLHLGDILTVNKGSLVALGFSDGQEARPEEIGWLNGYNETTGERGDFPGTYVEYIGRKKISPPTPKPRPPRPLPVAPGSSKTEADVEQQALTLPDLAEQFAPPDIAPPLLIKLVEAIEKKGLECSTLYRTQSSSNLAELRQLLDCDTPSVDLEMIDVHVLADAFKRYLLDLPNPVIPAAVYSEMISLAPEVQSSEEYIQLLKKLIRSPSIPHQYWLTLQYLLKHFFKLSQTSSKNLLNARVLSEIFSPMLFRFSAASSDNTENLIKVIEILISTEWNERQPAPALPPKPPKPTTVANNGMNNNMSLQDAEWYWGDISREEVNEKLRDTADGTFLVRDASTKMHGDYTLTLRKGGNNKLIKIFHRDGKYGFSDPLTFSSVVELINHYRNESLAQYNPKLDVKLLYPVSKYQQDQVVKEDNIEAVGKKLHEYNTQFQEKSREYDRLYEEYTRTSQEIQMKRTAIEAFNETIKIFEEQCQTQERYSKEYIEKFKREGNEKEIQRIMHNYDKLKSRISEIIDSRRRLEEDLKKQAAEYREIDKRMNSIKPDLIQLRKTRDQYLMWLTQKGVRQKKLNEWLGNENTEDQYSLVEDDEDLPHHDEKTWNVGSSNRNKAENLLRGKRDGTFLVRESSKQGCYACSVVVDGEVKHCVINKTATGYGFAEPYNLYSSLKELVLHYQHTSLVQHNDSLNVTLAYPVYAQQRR

| Structure (SMILES) | IC50 (PI3Kα) | IC50 [1] |
| --- | --- | --- |
| Cc1nc(N)nc(-c2c(Nc3ccn[nH]3)nc3ccc(C(N)=O)cn23)n1 [Cpd 293, 3-(4-amino-6-methyl-1,3,5-triazin-2-yl)-2-(1H-pyrazol-5-ylamino)-imidazo[1,2-a]pyridine-6-carboxamide] | 300 nM | 710 nM |
| Cc1nc(N)nc(-c2c(Nc3ccc4cccnc4c3)nc3ccc(N4CCN(C(=O)N(C)C)CC4)cn23)n1 [Cpd 277, 4-(3-(4-amino-6-methyl-1,3,5-triazin-2-yl)-2-(7-quinolinylamino)-imidazo[1,2-a]pyridin-6-yl)-N,N-dimethyl-1-piperazinecarboxamide] | 40 nM | 140 nM |
| COc1ccc(Nc2nc3ccc(N4CCN(C(C)=O)CC4)cn3c2-c2nc(C)nc(N)n2)cn1 [Cpd 285, 6-(4-acetyl-1-piperazinyl)-3-(4-amino-6-methyl-1,3,5-triazin-2-yl)-N-(6-methoxy-3-pyridinyl)imidazo[1,2-a]pyridin-2-amine] | 90 nM | – |
| Cc1nc(N)cc(-c2c(Nc3cccc(NC(=O)Cc4ccccc4)c3)nc3ccccn23)n1 [Cpd 318, N-(3-((3-(6-amino-2-methyl-4-pyrimidinyl)imidazo[1,2-a]pyridin-2-yl)amino)phenyl)-2-phenylacetamide] | 12000 nM | – |
| Cc1nc(N)cc(-c2c(Nc3cccc(S(C)(=O)=O)c3)nc3cccnn23)n1 [Cpd 94, 3-(6-amino-2-methyl-4-pyrimidinyl)-N-(3-(methylsulfonyl)phenyl)imidazo[1,2-b]pyridazin-2-amine] | – | 3920 nM |
| Cc1nc(NC(=O)Cc2ccc(F)cc2F)cc(-c2c(Nc3ccn(C)n3)nc3cccnn23)n1 [Cpd 129, 2-(2,4-difluorophenyl)-N-(2-methyl-6-(2-((1-methyl-1H-pyrazol-3-yl)amino)imidazo[1,2-b]pyridazin-3-yl)-4-pyrimidinyl)acetamide] | 4940 nM | 1470 nM |
| CNC(=O)c1cccc(Nc2nc3cccnn3c2-c2cc(N)nc(C)n2)c1 [Cpd 334] | 4940 nM | 240 nM |
| Cc1nc(NC(=O)Cc2cccc(F)c2)cc(-c2c(Nc3ccn(C)n3)nc3ccccn23)n1 [Cpd 128] | 5030 nM | 3160 nM |
| COc1ccc(Nc2nc3ccccn3c2-c2nc(C)nc(N)n2)cn1 [Cpd 4, 3-(4-amino-6-methyl-1,3,5-triazin-2-yl)-N-(6-methoxypyridin-3-yl)imidazo[1,2-a]pyridin-2-amine] | – | 40 nM |
| Cc1nc(NCC(F)(F)F)cc(-c2c(Nc3ccn[nH]3)nc3cccnn23)n1 [Cpd 295, 3-(2-methyl-6-((2,2,2-trifluoroethyl)amino)-4-pyrimidinyl)-N-1H-pyrazol-5-ylimidazo[1,2-b]pyridazin-2-amine] | 2980 nM | 240 nM |
| Cc1nc(N)cc(-c2c(Nc3cccc(NC(=O)NC4CC4)c3)nc3cccnn23)n1 [Cpd 316, 1-(3-((3-(6-amino-2-methyl-4-pyrimidinyl)imidazo[1,2-b]pyridazin-2-yl)amino)phenyl)-3-cyclopropylurea] | – | 950 nM |
| COCCNC(=O)n1ccc(Nc2nc3cccnn3c2-c2cc(N)nc(C)n2)n1 [Cpd 264] | 33400 nM | 3150 nM |
| Cc1nc(N)cc(-c2c(Nc3ccc(N4CC(O)C4)nc3)nc3cccnn23)n1 [Cpd 272, 1-(5-((3-(6-amino-2-methyl-4-pyrimidinyl)imidazo[1,2-b]pyridazin-2-yl)amino)-2-pyridinyl)-3-azetidinol] | 320 nM | 110 nM |
| Cc1nc(N)cc(-c2c(Nc3ccn(C(=O)Nc4cc(C(F)(F)F)ccc4Cl)n3)nc3cccnn23)n1 [Cpd 246, 3-((3-(6-amino-2-methyl-4-pyrimidinyl)imidazo[1,2-b]pyridazin-2-yl)amino)-N-(2-chloro-5-(trifluoromethyl)phenyl)-1H-pyrazole-1-carboxamide] | 15800 nM | – |
| COCCN1CCN(c2ccc3nc(Nc4cnc(OC)c(F)c4)c(-c4nc(C)nc(N)n4)n3c2)CC1 [Cpd 29, 3-(4-amino-6-methyl-1,3,5-triazin-2-yl)-N-(5-fluoro-6-methoxy-3-pyridinyl)-6-(4-(2-methoxyethyl)-1-piperazinyl)imidazo[1,2-a]pyridin-2-amine] | – | 26 nM |
| Cc1nc(Nc2ccc(N3CCOCC3)nn2)cc(-c2c(Nc3ccn(C)n3)nc3cccnn23)n1 [Cpd 149, 3-(2-methyl-6-((6-(4-morpholinyl)-3-pyridazinyl)amino)-4-pyrimidinyl)-N-(1-methyl-1H-pyrazol-3-yl)imidazo[1,2-b]pyridazin-2-amine] | – | 280 nM |
| CNc1cc(-c2c(Nc3cc[nH]n3)nc3cc(N4CCOCC4)cnn23)nc(C)n1 [Cpd 88, 3-(2-methyl-6-(methylamino)-4-pyrimidinyl)-7-(4-morpholinyl)-N-1H-pyrazol-3-ylimidazo[1,2-b]pyridazin-2-amine] | 4500 nM | 1630 nM |

Source: US20120190666A1, “Heteroaryl Compounds as PIKK Inhibitors” (Amgen Inc., priority 2009, published 2012)
